A word on the IC50: it is the concentration that gives 50% inhibition. Low readings indicate inhibition by little substance, high ones a need for much substance.

Consider one compound from patent EP4818187A1, “COMPOUND AND USE THEREOF” (Ganzhou Hemay Pharmaceutical, Co., Ltd, priority 2023, dated 2025).

The test system of data set [1] is 22RV1 (human prostate cancer). Kind of data set: In vitro inhibitory effect against human tumor cells (SRB). The data set is classed as cell-based. As to conditions: 22Rv1, 72 h, 22RV1, SRB, 3 days.
Data set [2] deals with SW620 (human colorectal cancer). The data set is described as above. The data set is classed as cell-based. The settings on record: SW-620, 72 h, 3 days.
Data set [3] deals with HCC827 (human non-small cell lung cancer). Described as above. The class given is cell-based. As to conditions: HCC827, 72 h, 3 days.
Data set [4] has as its system A375 (human malignant melanoma). The data set is described as above. The data set is classed as cell-based. As to conditions: A-375, 72 h, 3 days.
Data set [5] has as its system MDA-MB-468 (human triple-negative breast cancer). Described as above. As to conditions: MDA-MB-468, 72 h, MDA-MB-468, SRB, 3 days. The data set is classed as cell-based.
Data set [6] deals with HepG2 (human liver cancer cell). The data set is described as above. The settings on record: HepG2, 72 h, 3 days. The data set is classed as cell-based.
Data set [7] deals with human gastric cancer NCI-N87. Kind of data set: Biological Example 3: in vivo xenograft model of human gastric cancer NCI-N87. Also noted: species or system Balb/c-nu nude mice. The settings on record: nude mice. As for the experimental part: First, the xenograft model of human gastric cancer NCI-N87 was established subcutaneously in nude mice by inoculation with a cell-matrigel mixture. When the xenograft tumor grew to a volume of 100-300 mm^3 and maintained stable growth, the experimental animals were randomly grouped using remainder method based on the tumor volume and administered with drugs. The tumor volume was measured 2 to 3 times every week. After the dosing period was completed, the experimental animals were killed, and the subcutaneous tumors were excised and weighed. The anti-tumor activity of the drug in this model was evaluated based on relevant data of the tumor volumes and the tumor weights. Table 8: List of experimental animal groups and dosage regimens
Calculation formula of the tumor volume: volume=0.5× long diameter × short diameter^2. Relative tumor volume(RTV): RTV = Vt/ V0 [formula]
V0 is the tumor volume measured at the time of grouping for dosing (i.e., d0), and Vt is the tumor volume measured each time. Relative tumor proliferation rate(T/C): T/C = TRTV /CRTV × 100% [formula]
T is the mean RTV of the test compound, and C is the mean RTV of the model control group. [formula] Body weight change percentage = Wn /W0 × 100% [formula]
Wn: mean body weight of each group of experimental animals on day n, and W0: mean body weight of each group of experimental animals on day 0.
The purchased experimental animals were subjected to balanced feeding for 3 days. A xenograft model was established in nude mice by inoculation with a cell-matrigel mixture: conventionally cultured NCI-N87 cells in the logarithmic growth phase were sampled, digested, collected, and adjusted with PBS to a cell density of 6×10^7 cells/mL. In an ice water bath, the cell suspension was slowly added to an equal volume of matrigel, the system was fully mixed, and then the xenograft model was established by subcutaneous inoculation in the right armpit of male nude mice, with 0.15 mL/mouse and a cell inoculum size of approximately 4.5 million cells/mouse.
The tumor growth of the model animals was regularly observed. When the mean tumor volume of the model nude mice reached about 100-300 mm^3, the experimental animals were randomly grouped using the remainder method based on the tumor volume, and administered with drugs. The day on which the animals were grouped was day 0. After grouping, drugs were administered to each group according to Table 8. The dosage or dosing period can be appropriately adjusted based on the tumor growth and the animal state. After administration, the tumor volumes of the experimental animals were measured 2-3 times every week until the experiment was completed. After the dosing period was completed, the experimental animals were killed, and the subcutaneous tumors were excised and weighed. The anti-tumor activity of each compound in this model was evaluated based on relevant data of the tumor volumes and tumor weights. Table 9: Effect on growth of xenograft model of human gastric cancer NCI-N87
The test was performed based on the dosage regimen in Table 10, following the method in Biological Example 2. Table 10: List of dosage regimens
Background: A xenograft is tissue or cells of one species grown in another, often human tumour cells in immunodeficient mice.

Where [8] appears, read: With addition of βGU (1 µg/well).

Regarding `CC[C@H](C)[C@@H]([C@@H](CC(=O)N1CCC[C@H]1[C@H](OC)[C@@H](C)C(=O)N[C@H](C)[C@@H](OCc1ccc(O[C@@H]2O[C@H](C(=O)[O-])[C@@H](O)[C@H](O)[C@H]2O)cc1OCc1cn(CCCCCC(=O)Nc2ccc(-c3ccc(/N=N/c4ccc5c(S(=O)(=O)[O-])cc(S(=O)(=O)[O-])c(N)c5c4O)c(C)c3)cc2C)nn1)c1ccccc1)OC)N(C)C(=O)[C@@H](NC(=O)[C@H](C(C)C)N(C)C)C(C)C.[Na+].[Na+].[Na+]` [Example compound 2], the half-maximal inhibitory concentration (IC50) in data set [1] (setting [8]) was determined as 7.5 nM; in data set [1] (βGU-free), 176 nM; in data set [2] (setting [8]), 6.7 nM; in data set [2] (βGU-free), 81 nM; in data set [3] (setting [8]) it was 3.8 nM; in data set [3] (βGU-free), 110 nM. Besides, the IC50 in data set [4] (setting [8]) came out at 6.7 nM; in data set [4] (βGU-free), 212 nM; in data set [5] (setting [8]), 2.7 nM; in data set [5] (βGU-free) it was 24 nM; in data set [6] (setting [8]), 4.3 nM; in data set [6] (βGU-free) it was 120 nM. Further, the “Final body weight change (%)” value in data set [7] (15 mg/kg i.v. qw×2) amounted to 11.4%. Further, the “Maximum body weight change (%)” value in data set [7] (15 mg/kg i.v. qw×2) was 11.4, d26%. Further, the “Relative volume RTV (x±S.D.)” value in data set [7] (15 mg/kg i.v. qw×2) is given as 0.48±0.07. Also, in data set [7] (15 mg/kg i.v. qw×2), the “T/C (%)” value is reported as 5.9%. The “Tumor inhibition rate (%)” value in data set [7] (15 mg/kg i.v. qw×2) was determined as 96.4%. Also, in data set [7] (15 mg/kg i.v. qw×2), the “Tumor weight (g, x±S.D.)” value is 0.048 ± 0.009 g. For the same compound, the “Body weight (g, x±S.D.) End” value in data set [7] (15 mg/kg i.v. qw×2, End) stood at 26.9 ± 1.3 g. The “Body weight (g, x±S.D.) Start” value in data set [7] (15 mg/kg i.v. qw×2, Start) stood at 24.2 ± 1.5 g.
